Results: patent publication US11634607B2, “Compositions for containers and other articles and methods of using same” (SWIMC LLC, priority 2011, dated 2023)

test system: MCF-7, clone WS8, cells; assay: MCF-7 cell proliferation assay of estrogenic activity; assay type: cell-based, human; conditions: logarithmic (base 10) Relative Proliferative Effect vs 17-beta estradiol; 'expected or measured' values, not told apart
Text: The MCF-7 assay uses MCF-7, clone WS8, cells to measure whether and to what extent a substance induces cell proliferation via estrogen receptor (ER)-mediated pathways. The method is described in “Test Method Nomination: MCF-7 Cell Proliferation Assay of Estrogenic Activity” submitted for validation by CertiChem, Inc. to the National Toxicology Program Interagency Center for the Evaluation of Alternative Toxicological Methods (NICEATM) on Jan. 19, 2006 (available online at http://iccvam.niehs.nih.gov/methods/endocrine/endodocs/SubmDoc.pdf).
A brief summary of the method of the aforementioned MCF-7 assay is provided below. MCF-7, clone WS8, cells are maintained at 37° C. in RMPI (or Roswell Park Memorial Institute medium) containing Phenol Red (e.g., GIBCO Catalog Number 11875119) and supplemented with the indicated additives for routine culture. An aliquot of cells maintained at 37° C. are grown for 2 days in phenol-free media containing 5% charcoal stripped fetal bovine serum in a 25 cm^2 tissue culture flask. Using a robotic dispenser such as an epMotion 5070 unit, MCF-7 cells are then seeded at 400 cells per well in 0.2 ml of hormone-free culture medium in Corning 96-well plates. The cells are adapted for 3 days in the hormone-free culture medium prior to adding the chemical to be assayed for estrogenic activity. The media containing the test chemical is replaced daily for 6 days. At the end of the 7-day exposure to the test chemical, the media is removed, the wells are washed once with 0.2 ml of HBSS (Hanks' Balanced Salt Solution), and then assayed to quantify amounts of DNA per well using a micro-plate modification of the Burton diphenylamine (DPA) assay, which is used to calculate the level of cell proliferation.
RPE is the ratio between the EC50 of the test chemical and the EC50 of the control substance 17-beta estradiol times 100, where EC50 is “effective concentration 50%” or half-maximum stimulation concentration for cell proliferation measured as total DNA in the MCF-7 assay.

Question: Which “Log RPE” value does the source give for `C[C@]12CC[C@@H]3c4ccc(O)cc4CC[C@H]3[C@@H]1CC[C@@H]2O` [17β-estradiol] here?
Answer: 2.00

Question: For `Oc1ccc(Cc2ccc(O)cc2)cc1` [Bisphenol F], which “Log RPE” value is on record?
Answer: −2

Question: For `O=S(=O)(c1ccc(O)cc1)c1ccc(O)cc1` [Bisphenol S], which “Log RPE” value is on record?
Answer: −2
